These results are taken from patent US10654834B2 (Venenum Biodesign, LLC, priority 2016, dated 2020).

One data set deals with T1, human TGR5 receptor (Homo sapiens, UniProt Q8TDU6).
T1 construct: host or cells: CHO-K1 (hTGR5-CHO)
T1 sequence (Q8TDU6 1-330): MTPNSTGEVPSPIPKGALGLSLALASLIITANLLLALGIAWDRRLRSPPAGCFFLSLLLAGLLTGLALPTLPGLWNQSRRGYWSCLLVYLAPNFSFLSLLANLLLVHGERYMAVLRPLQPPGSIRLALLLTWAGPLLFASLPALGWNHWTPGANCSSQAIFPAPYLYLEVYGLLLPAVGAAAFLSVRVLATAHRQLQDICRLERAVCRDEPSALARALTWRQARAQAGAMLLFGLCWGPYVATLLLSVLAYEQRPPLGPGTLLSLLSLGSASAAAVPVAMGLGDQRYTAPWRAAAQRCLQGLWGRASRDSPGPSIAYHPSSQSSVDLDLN
The data set can be described thus: Human TGR5 cAMP production assay (hTGR5-CHO cells, DiscoveRx cAMP XS+ kit). The conditions noted are these: luminescent cAMP assay, read-out: Human TGR5 Lum. cAMP Activity (EC50). The data set is classed as cell-based. The gist of the method: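 CHO-K1 cells stably expressing hTGR5, in PBS with IBMX and cAMP antibody, treated with half-log compound dilutions for 1 h at room temperature. cAMP measured by enzyme-fragment complementation luminescence after overnight detection; EC50 values reported.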

Data set [1] can be described thus: Pharmacokinetic profile in mice after oral gavage. The data set is classed as in vivo, mouse. The conditions noted are these: mouse; fasted male Hilltop mice, 10 mg/kg oral gavage, plasma; read-out: Cmax. The method, boiled down: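 Fasted 8-week male Hilltop mice given 10 mg/kg orally in 20% PEG400/80% 0.5% CMC + 0.25% Tween-80. EDTA plasma sampled 0-4 h, measured by LC-MS/MS (MRM, positive ion); Cmax and AUC derived non-compartmentally, values being means of three mice.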

What is called EC50 is the midpoint of the concentration-response curve. By Cmax is commonly meant the maximum level reached in the sampled fluid or tissue. Turning to `N#Cc1ccc(CCNC(=O)[C@@H]2CCCN2c2cc(N3CCC(CCNC(=O)NCP(=O)(O)O)CC3)nc(C(F)(F)F)n2)cc1` [Compound 372, (S)-((3-(2-(1-(6-(2-((4-cyanophenethyl)carbamoyl)pyrrolidin-1-yl)-2-(trifluoromethyl)pyrimidin-4-yl)piperidin-4-yl)ethyl)ureido)methyl)phosphonic acid], the EC50 on human TGR5 receptor was less than 100 nM. Besides, the Cmax in data set [1] was found to be 105 ng/mL.
`O=C(CCCC1CCN(c2cc(N3CCC[C@H]3C(=O)NCCc3ccc(C(F)(F)F)cc3)nc(C(F)(F)F)n2)CC1)NCCS(=O)(=O)O` [Compound 58, (S)-2-(4-(1-(2-(trifluoromethyl)-6-(2-((4-(trifluoromethyl)phenethyl)-carbamoyl)-pyrrolidin-1-yl)-pyrimidin-4-yl)piperidin-4-yl)butanamido)ethanesulfonic acid]: on human TGR5 receptor, the EC50 is less than 100 nM. Further, the Cmax in data set [1] came out at 29 ng/mL.
The matching figures for `N#Cc1ccc(CCNC(=O)[C@@H]2CCCN2c2cc(N3CCC(CCNS(=O)(=O)CCNC(=N)N)CC3)nc(C(F)(F)F)n2)cc1` [Compound 130, (S)-N-(4-cyanophenethyl)-1-(6-(4-(2-(2-guanidinoethylsulfonamido)ethyl)piperidin-1-yl)-2-(trifluoromethyl)pyrimidin-4-yl)pyrrolidine-2-carboxamide]: less than 100 nM and 2.8 ng/mL.
The matching figures for `N[C@@H](CS(=O)(=O)O)C(=O)NCCC1CCN(c2cc(N3CC[C@H]3C(=O)NCCc3ccc(C(F)(F)F)cc3)nc(C(F)(F)F)n2)CC1` [Compound 278, (R)-2-amino-3-oxo-3-((2-(1-(2-(trifluoromethyl)-6-((S)-2-((4-(trifluoromethyl)-phenethyl)carbamoyl)azetidin-1-yl)pyrimidin-4-yl)piperidin-4-yl)ethyl)amino)-propane-1-sulfonic acid]: less than 100 nM and 3.7 ng/mL.
As to `N#Cc1ccc(CCNC(=O)[C@@H]2CCN2c2cc(N3CCC(CCNc4c(NCCS(=O)(=O)O)c(=O)c4=O)CC3)nc(C(F)(F)F)n2)cc1` [Compound 297, (S)-2-((2-((2-(1-(6-(2-((4-cyanophenethyl)carbamoyl)azetidin-1-yl)-2-(trifluoromethyl)pyrimidin-4-yl)piperidin-4-yl)ethyl)amino)-3,4-dioxocyclobut-1-en-1-yl)amino)ethanesulfonic acid], the 50% effective concentration (EC50) on human TGR5 receptor was less than 100 nM. Further, the Cmax in data set [1] was 11 ng/mL.
For `N#Cc1ccc(CCNC(=O)[C@@H]2CCCN2c2cc(N3CCC(CCNS(=O)(=O)CCNC(=O)[C@@H](N)CS(=O)(=O)O)CC3)nc(C(F)(F)F)n2)cc1` [Compound 125, (R)-2-amino-3-((2-(N-(2-(1-(6-((S)-2-((4-cyanophenethyl)carbamoyl)-pyrrolidin-1-yl)-2-(trifluoromethyl)-pyrimidin-4-yl)piperidin-4-yl)ethyl)sulfamoyl)ethyl)amino)-3-oxopropane-1-sulfonic acid], the EC50 on human TGR5 receptor is less than 100 nM. In data set [1], the Cmax stood at 0.14 ng/mL.
Take `O=C(CCCC1CCN(c2cc(N3CCC[C@H]3C(=O)NCCc3ccc(C(F)(F)F)cc3)nc(C(F)(F)F)n2)CC1)NCCCS(=O)(=O)O` [Compound 60, (S)-3-(4-(1-(2-(trifluoromethyl)-6-(2-((4-(trifluoromethyl)phenethyl)carbamoyl)pyrrolidin-1-yl)pyrimidin-4-yl)piperidin-4-yl)butanamido)propane-1-sulfonic acid]: the EC50 on human TGR5 receptor was less than 100 nM. The Cmax in data set [1] was 4.3 ng/mL.
`N#Cc1ccc(CCNC(=O)[C@@H]2CCCN2c2cc(N3CCC(CCNC(=N)N)CC3)nc(C(F)(F)F)n2)cc1` [Compound 126, (S)—N-(4-cyanophenethyl)-1-(6-(4-(2-guanidinoethyl)piperidin-1-yl)-2-(trifluoromethyl)pyrimidin-4-yl)pyrrolidine-2-carboxamide]: the EC50 on human TGR5 receptor is less than 100 nM. Besides, the Cmax in data set [1] was 2 ng/mL.
The matching figures for `O=C(CCC1CCN(c2cc(N3CC[C@H]3C(=O)NCCc3ccc(C(F)(F)F)cc3)nc(C(F)(F)F)n2)CC1)NCS(=O)(=O)O` [Compound 253, (S)-(3-(1-(2-(trifluoromethyl)-6-(2-((4-(trifluoromethyl)phenethyl)-carbamoyl)azetidin-1-yl)pyrimidin-4-yl)piperidin-4-yl)propanamido)-methanesulfonic acid]: less than 100 nM and 48 ng/mL.
Turning to `N=C(N)N[C@@H](CCC(=O)NCCCC1CCN(c2cc(N3CCC[C@H]3C(=O)NCCc3ccc(C(F)(F)F)cc3)nc(C(F)(F)F)n2)CC1)C(=O)O` [Compound 133, (S)-2-guanidino-5-oxo-5-((3-(1-(2-(trifluoromethyl)-6-((S)-2-((4-(trifluoromethyl)phenethyl)carbamoyl)pyrrolidin-1-yl)pyrimidin-4-yl)piperidin-4-yl)propyl)amino)pentanoic acid], the EC50 at human TGR5 receptor is less than 100 nM. Moreover, in data set [1], the peak concentration (Cmax) was found to be 4.1 ng/mL.
In the case of `N#Cc1ccc(CCNC(=O)[C@@H]2CCCN2c2cc(N3CCC(CCNC(=O)NCCS(=O)(=O)NCC(=O)O)CC3)nc(C(F)(F)F)n2)cc1` [Compound 107], the EC50 at human TGR5 receptor was less than 100 nM. For the same compound, the highest concentration (Cmax) in data set [1] was found to be 0.4 ng/mL.
As to `N#Cc1ccc(CCNC(=O)[C@@H]2CCCN2c2cc(N3CCC(CCNc4c(NCP(=O)(O)O)c(=O)c4=O)CC3)nc(C(F)(F)F)n2)cc1` [Compound 369, (S)-(((2-((2-(1-(6-(2-((4-cyanophenethyl)carbamoyl)pyrrolidin-1-yl)-2-(trifluoromethyl)pyrimidin-4-yl)piperidin-4-yl)ethyl)amino)-3,4-dioxocyclobut-1-en-1-yl)amino)methyl)phosphonic acid], the EC50 at human TGR5 receptor was less than 100 nM. In addition, the Cmax in data set [1] came to 1.7 ng/mL.
Consider `N#Cc1ccc(CCNC(=O)[C@@H]2CCCN2c2cc(N3CCC(CCCC(=O)NCCCC[C@H](NC(=N)N)C(=O)O)CC3)nc(C(F)(F)F)n2)cc1` [Compound 129, (S)-6-(4-(1-(6-((S)-2-((4-cyanophenethyl)carbamoyl)pyrrolidin-1-yl)-2-(trifluoromethyl)pyrimidin-4-yl)piperidin-4-yl)butanamido)-2-guanidinohexanoic acid], for which the EC50 on human TGR5 receptor was less than 100 nM. Moreover, in data set [1], the Cmax is 0.6 ng/mL.
As for `N#Cc1ccc(CCNC(=O)[C@@H]2CCN2c2cc(N3CCC(CCNC(=O)NCCS(=O)(=O)O)CC3)nc(C(F)(F)F)n2)cc1` [Compound 271, (S)-2-(3-(2-(1-(6-(2-((4-cyanophenethyl)carbamoyl)azetidin-1-yl)-2-(trifluoromethyl)pyrimidin-4-yl)piperidin-4-yl)ethyl)ureido)-ethanesulfonic acid], the EC50 on human TGR5 receptor was less than 100 nM. Besides, the Cmax in data set [1] was less than 1 ng/mL.
As to `N#Cc1ccc(CCNC(=O)[C@@H]2CCCN2c2cc(-c3ccc(CCC(=O)NCS(=O)(=O)O)cc3)cc(C(F)(F)F)n2)cc1` [Compound 206, (S)-(3-(4-(2-(2-((4-cyanophenethyl)carbamoyl)pyrrolidin-1-yl)-6-(trifluoromethyl)pyridin-4-yl)phenyl)propanamido)methanesulfonic acid], the 50% effective concentration (EC50) on human TGR5 receptor is less than 100 nM. Besides, the Cmax in data set [1] is 3.8 ng/mL.
In the case of `N#Cc1ccc(CCNC(=O)[C@@H]2CCCN2c2cc(N3CCC(CCCC(=O)O)CC3)cc(C(F)(F)F)n2)cc1` [Compound 197, (S)-4-(1-(2-(2-((4-cyanophenethyl)carbamoyl)pyrrolidin-1-yl)-6-(trifluoromethyl)pyridin-4-yl)piperidin-4-yl)butanoic acid], the EC50 on human TGR5 receptor was less than 100 nM. Further, the Cmax in data set [1] worked out at 143 ng/mL.
For the compound `N#Cc1ccc(CCNC(=O)[C@@H]2CCCN2c2cc(N3CCC(CCN)CC3)nc(C(F)(F)F)n2)cc1` [Compound 50, (S)-1-(6-(4-(2-aminoethyl)piperidin-1-yl)-2-(trifluoromethyl)pyrimidin-4-yl)-N-(4-cyanophenethyl)pyrrolidine-2-carboxamide], the EC50 at human TGR5 receptor is less than 100 nM. Besides, the Cmax in data set [1] was 214 ng/mL.
With `O=C(O)CCCC1CCN(c2cc(N3CCC[C@@H](C(=O)NCCc4ccc(C(F)(F)F)cc4)C3)nc(C(F)(F)F)n2)CC1` [Compound 330, (R)-4-(1-(2-(trifluoromethyl)-6-(3-((4-(trifluoromethyl)phenethyl)carbamoyl)piperidin-1-yl)pyrimidin-4-yl)piperidin-4-yl)butanoic acid], the EC50 at human TGR5 receptor is less than 100 nM. The Cmax in data set [1] amounted to 20 ng/mL.
As to `CN(C)CCC1CCN(c2cc(N3CCC[C@H]3C(=O)NCCc3ccc(C(F)(F)F)cc3)nc(C(F)(F)F)n2)CC1` [Compound 5], the EC50 on human TGR5 receptor is less than 100 nM. Also, the highest concentration (Cmax) in data set [1] worked out at 338 ng/mL.
For `N#Cc1ccc(CCNC(=O)[C@@H]2CCCN2c2cc(N3CCC(CCO)CC3)nc(C(F)(F)F)n2)cc1` [Compound 22], the EC50 on human TGR5 receptor was less than 100 nM. The Cmax in data set [1] came out at 171 ng/mL.
The matching figures for `N#Cc1ccc(CCNC(=O)[C@@H]2CCN2c2cc(N3CCC(CCO)CC3)nc(C(F)(F)F)n2)cc1` [Compound 223, (S)-N-(4-cyanophenethyl)-1-(6-(4-(2-hydroxyethyl)piperidin-1-yl)-2-(trifluoromethyl)pyrimidin-4-yl)azetidine-2-carboxamide]: less than 100 nM and 44 ng/mL.
Take `COCC1CCN(c2cc(N3CCC[C@H]3C(=O)NCCc3ccc(C#N)cc3)nc(C(F)(F)F)n2)CC1` [Compound 24]: the EC50 on human TGR5 receptor was less than 100 nM. Also, the Cmax in data set [1] amounted to 970 ng/mL.
